Laboratory results published in US4243679A, “S-(3-Methyl-2-butenyl)cysteine” (priority 1978, dated 1981).
Read-outs that look alike come from different tables or passages of the source.

Key:
[1] = tested on: tracheobronchial secretion; experiment: Secretogogue activity, Mawatari's technique (bronchial elimination of sodium fluoresceine), mouse; type: in vivo
Protocol: (§1) The capacity of increasing tracheobronchial secretion was determined by the technique of bronchial elimination of sodium fluoresceine (Mawatari, Kagoshima Daigak Igaku Zasshi, 27, 561 (1976)) on two animal species and by two different administration routes: oral and parenteral.
(§2) Secretogogue activity - Mawatari's technique
(§3) Three dose levels n = 15-40 = number of test animals
(§4) Male animals were used -

[2] = tested on: tracheobronchial secretion; experiment: Secretogogue activity, Mawatari's technique (bronchial elimination of sodium fluoresceine), rat; type: in vivo
Protocol: as §1, §2, §3, §4

[3] = tested on: tracheobronchial secretion; experiment: Secretogogial activity, bronchial elimination of sodium fluoresceine, two animal species (overall statement); type: in vivo, Mouse; Rat; conditions: oral and parenteral
Protocol: as §1

mucus = experiment: Expectorant activity, Perry-Boyd technique; type: in vivo; conditions: rabbit; for % increase with regard to controls: fluid collected
Description: Determination of the expectorant activity was achieved by the technique of collecting mucus of anaesthetized rabbits breathing in conditioned air at body humidity and temperature (Perry and Boyd, J. Pharmacol. Exp. Ther., 23 65(194l)), and measuring the percentage increase of fluid collected in relation to controls.
Expectorant activity. Perry-Boyd technique, in
rabbit. Oral route, n = 12 = number of test

respiratory mucus = experiment: Modification of respiratory mucus composition, Giraldez-Gras method; type: in vivo, rabbit
Protocol: By means of an original technique (Giraldez and Gras), XXVI Congr. IUPS, Abstr. 777, Paris 1977)) which allows the collection of abundant samples of mucus on conscious animals and on consecutive days, the amount of eliminated mucus, its biochemical composition and its physico-chemical constants were studied. In addition to the two standards used before, N-acetylcysteine was also administered by topic route. |Modification of mucus composition. Giraldez-Gras Method, in rabbit |Oral route n = 12-30 = number of test animals

ciliary epithelium = experiment: Effect on the ciliary movement: mucus transport time in isolated dog trachea
Description: This vehicle was also used as the blank.
Mucus transport time, in isolated dog trachea

Acute toxicity, rat = conditions: in vivo
Description: (§5) The weight of the animals was of 180±20 g for rats and >25 g for mice.

Acute toxicity, mouse = conditions: in vivo
Description: as §5

[4] = Acute toxicity, two species (overall statement); type: in vivo, Rat; Mouse; conditions: oral and intraperitoneal
Description: as §5

[5] = Subacute toxicity in rat (one month); type: in vivo; conditions: 100, 300 and 1000 mg/kg/day
Protocol: In order to study the toxicity of ITA 275 in the rat, this compound was given at doses of 100, 300 and 1000 mg/kg/day during one month, to 100 rats (.male./.female.=50/50)

[6] = Subchronic toxicity in rat (six months); type: in vivo; conditions: 100, 300 and 1000 mg/kg/day
Description: ITA 275 was given during six months to rats at the same doses as in the preceding test. The number of animals used was of 100 (.male./.female.=50/50).

[7] = oral; cited from earlier work
[8] = rabbit, oral, 500 mg/kg, ***p < 0,005
[9] = ip, confidence limits on next printed line
[10] = ip, confidence limits printed on next line
[11] = rabbit, 0,1 ml/kg sol. 20% (topic)

Compound	Max. efficiency % secretion increase ([1]; i.p.)	ED25 ([1]; ip, read-out: ED25)	Max. efficiency % secretion increase ([1]; p.o.)	Max. efficiency % secretion increase ([2]; p.o.)	ED50 ([2]; po, read-out: ED50)	Secretogogial activity (in words) [3]	% increase with regard to controls (mucus; 500 mg/kg p.o.)	% Increase SH Groups (respiratory mucus; rabbit, oral, 500 mg/kg)	% Increase mucus weight (respiratory mucus; rabbit, oral, 500 mg/kg)	% Increase Muco-proteins (respiratory mucus; [8])	LD50 (Acute toxicity, rat; [9])	LD50 (Acute toxicity, rat; po)	LD50 (Acute toxicity, mouse; [10])	LD50 (Acute toxicity, mouse; po)	ED25 ([1]; p.o.)	other results
CC(C)=CCSC[C@H](N)C(=O)O [ITA 275, S-(3-methyl-2-butenyl)-cysteine]	42,7%	218 mg/kg	20,7%	57,0%	447 mg/kg	showed activity	135,6%	29,2 ± 14,4%	466,1 ± 343,5%	32,7 ± 14,3%	3100 mg/kg	> 4000 mg/kg	2090 mg/kg	> 4000 mg/kg	–	ED25 ([1]; po, read-out: ED25): 611 mg/kg; Expectorant activity compared with S-carboxymethylcysteine (in words) (mucus; oral route): somewhat more active than S-carboxymethylcysteine; content of total proteins (in words) (respiratory mucus; rabbit): increase in the content of total proteins; mucolytic property demonstrated by the release of -SH groups (in words) (respiratory mucus; rabbit): does not present the mucolytic property of N-acetylcysteine; mucus elimination (in words) (respiratory mucus; rabbit): great increase in mucus elimination; % increase of ciliary transport time (ciliary epithelium; 10 mM, 0 min, p<0,001): 162,3 ± 13,4%; % increase of ciliary transport time (ciliary epithelium; 10 mM, 10 min, p<0,01): 107,3 ± 21,8%; % increase of ciliary transport time (ciliary epithelium; 10 mM, 20 min): 16,2 ± 7,6%; duration of the increase in transport time (ciliary epithelium; isolated dog trachea): at least 20 min.; acute toxicity (in words) [4]: very low acute toxicity both by oral and intraperitoneal routes; acute toxicity compared with S-carboxymethylcysteine (in words) [4]: even smaller than that of S-carboxymethylcysteine; general behaviour [5]: No abnormalities; hematological values [5]: remained normal; liver weight [5]: slight increase in liver weight; weight increase, food and water intake [5]: did not modify either the weight increase or the food and water intake; weight of all other organs [5]: did not undergo weight changes; tolerability [6]: well tolerated
COc1cc2c3cc1Oc1cc(ccc1O)C[C@@H]1c4c(cc(OC)c(O)c4Oc4ccc(cc4)C[C@@H]3N(C)CC2)CC[N+]1(C)C [d-turbocurarine]	–	–	–	–	–	–	–	–	–	–	–	–	–	–	–	% increase of ciliary transport time (ciliary epithelium; 10^-4 g/ml, 0 min): 69,8 ± 12,3%; % increase of ciliary transport time (ciliary epithelium; 10^-4 g/ml, 10 min): 32,3 ± 14,5%
CC(=O)N[C@@H](CS)C(=O)O [N-acetylcysteine]	–	–	–	–	–	–	–	–	–	–	–	–	–	–	–	% Increase mucus weight (respiratory mucus; [11]): 150,9 ± 30,8%; % Increase total proteins (respiratory mucus; [11]): 491,4 ± 311,1%; % Increase Muco-proteins (respiratory mucus; rabbit, 0,1 ml/kg sol. 20% (topic), **p < 0,01): 2450,3 ± 480,5%; % Increase SH Groups (respiratory mucus; rabbit, 0,1 ml/kg sol. 20% (topic), *p < 0,1): 305,5 ± 102,9%
CN(Cc1cc(Br)cc(Br)c1N)C1CCCCC1 [Bisolvon, Bromhexine]	26,0%	32 mg/kg	34,7%	14,8%	–	below statistical significance and did not follow a constant dose-effect sequence	–	–	–	–	–	–	–	–	no corre-	ED50 ([2]; p.o.): no corre-; % increase with regard to controls (mucus; 20 mg/kg p.o.): 20,6%; % increase with regard to controls (mucus; 40 mg/kg p.o.): 38,1%; % Increase Muco-proteins (respiratory mucus; rabbit, oral, 40 mg/kg): 4,9 ± 8,9%; % Increase SH Groups (respiratory mucus; rabbit, oral, 40 mg/kg): 0,3 ± 13,4%; % Increase mucus weight (respiratory mucus; rabbit, oral, 40 mg/kg): -6,1 ± 8,3%; % Increase total proteins (respiratory mucus; rabbit, oral, 40 mg/kg): 3,1 ± 14,4%; absorption when orally administered (in words) [7]: well adsorbed when orally administered; side effects (in words) [7]: practically no side effects
N[C@@H](CSCC(=O)O)C(=O)O [S-Carboxymethylcysteine, S-carboxymethylcysteine]	22,3%	764 mg/kg	6,3%	39,3%	1070 mg/kg	below statistical significance and did not follow a constant dose-effect sequence	110,9%	11,6 ± 34,2%	16,4 ± 44,9%	131,9 ± 91,8%	2480 mg/kg	> 4000 mg/kg	1780 mg/kg	> 4000 mg/kg	no corre-	% Increase total proteins (respiratory mucus; rabbit, oral, 500 mg/kg): 31,7 ± 27,4%
